Structures can show the parent of a compound that is named as a salt. Where two headings read alike, the source gives them in different places.
Tests used:
E coli 76-2 = experiment: In vitro antimicrobial activity, 2-fold agar dilution; type: cell-based; conditions: Mueller-Hinton agar, 37° C., 24 hours
Description: (§1) 21, 1977. The in vitro activity of 2-deoxyfortimicin As set forth in Table I. The in vitro activity of 2-deoxyfortiicin A tetrahydrochloride, fortimicin A disulfate and fortimicin A tetrahydrochloride were determined using a 2-fold agar dilution method using 10 ml per petri plate of Mueller-Hinton agar. The agar was inoculated with one loopful (0.001 ml/loop) of a 1:10 dilution of a 24 hour broth culture of the indicated test organism and incubated at 37° C. for 24 hours.

[1] = tested on: Psuedo. aeruginosa KY 8516; experiment: as above; type: cell-based
Description: as §1

With COC1CC(N)C(OC2OC(C(C)N)CCC2N)C(O)C1N(C)C(=O)CN (centres unmarked) [2-deoxyfortimicin A tetrahydrochloride] the MIC (E coli 76-2; read-out: Minimum inhibitory concentration) was 3.1 µg/mL and the MIC ([1]; Psuedo. aeruginosa KY 8516, Mueller-Hinton agar, 37° C., 24 hours, read-out: Minimum inhibitory concentration) was 50 µg/mL.
Work on COC1C(O)C(N)C(OC2OC(C(C)N)CCC2N)C(O)C1N(C)C(=O)CN (centres unmarked) [Fortimicin A disulfate, fortimicin A disulfate] yielded an MIC ([1]; 24 h, read-out: Minimum inhibitory concentration, Psuedo. aeruginosa KY 8516, Mueller-Hinton agar, 37° C.) of 50 µg/mL.
Compound COC1C(O)C(N)C(OC2OC(C(C)N)CCC2N)C(O)C1N(C)C(=O)CN (centres unmarked) [Fortimicin A tetrahydrochloride, fortimicin A tetrahydrochloride] has a Minimum inhibitory concentration (E coli 76-2) of 3.1 µg/mL and a Minimum inhibitory concentration ([1]; Psuedo. aeruginosa KY 8516, Mueller-Hinton agar, 37° C., 24 hours) of 100 µg/mL.

Reference: US4230846A, “1,5-Carbamates of fortimicin B and derivatives” (Abbott Laboratories, priority 1979, dated 1980)
